± gives the expanded uncertainty stated by the source.
Assay: cn = amount concentration of the nth substance listed, in mol/dm3
Details: 101 kPa, Liquid, Capillary tube (Ostwald / Ubbelohde) method, c1 = 2

Row | Compound | viscosity (298.15 K) | viscosity (303.15 K) | viscosity (308.15 K) | viscosity (313.15 K) | viscosity (318.15 K) | viscosity (323.15 K)
1 | [Cl-].[K+] [potassium chloride] + O | 0.9063 ± 0.0073 mPa·s | 0.8279 ± 0.0067 mPa·s | 0.7573 ± 0.0062 mPa·s | 0.6954 ± 0.0058 mPa·s | 0.64 ± 0.0054 mPa·s | 0.5914 ± 0.0051 mPa·s
2 | O=[N+]([O-])[O-].[K+] [potassium nitrate] + O | 0.8985 ± 0.0072 mPa·s | 0.8134 ± 0.0066 mPa·s | 0.7473 ± 0.0061 mPa·s | 0.6857 ± 0.0057 mPa·s | 0.6322 ± 0.0054 mPa·s | 0.5838 ± 0.005 mPa·s

Source: the NIST ThermoML archive (doi:10.1007/s10765-011-0996-9)
